Results from the supplement of paper PMC10307832.

Assays:
Assay in all cases: relative viability (nuclei count vs DMSO), 5 days (fraction); higher = more cells survive
BAY61-3606 + Palbociclib = compound: COC1=C(C=C(C=C1)C2=CC3=NC=CN3C(=N2)NC4=C(C=CC=N4)C(=O)N)OC [BAY61-3606] + CC(=O)c1c(C)c2cnc(Nc3ccc(N4CCNCC4)cn3)nc2n(C2CCCC2)c1=O [Palbociclib] (partner 0.5 µM)
Method in brief: (§1)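 Relative viability equals treated-well nuclei counts divided by vehicle-well nuclei counts. Counts came from 4× images of lung cancer cell lines grown in 1536-well plates for 5 days after pin-tool dosing on the day after seeding. Dosing used one drug alone or a fixed anchor-drug dose plus five library-drug doses (not always all listed) in √10 steps, and values are medians of duplicate plates.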

Doxorubicin + Pictilisib = compound: COc1cccc2c1C(=O)c1c(O)c3c(c(O)c1C2=O)C[C@@](O)(C(=O)CO)C[C@@H]3O[C@H]1C[C@H](N)[C@H](O)[C@H](C)O1 [Doxorubicin] + CS(=O)(=O)N1CCN(Cc2cc3nc(-c4cccc5[nH]ncc45)nc(N4CCOCC4)c3s2)CC1 [Pictilisib] (partner 1 µM)
Method in brief: as §1

BAY61-3606 + Alpelisib = compound: COC1=C(C=C(C=C1)C2=CC3=NC=CN3C(=N2)NC4=C(C=CC=N4)C(=O)N)OC [BAY61-3606] + Cc1nc(NC(=O)N2CCC[C@H]2C(N)=O)sc1-c1ccnc(C(C)(C)C(F)(F)F)c1 [Alpelisib] (partner 2 µM)
Method in brief: as §1

Doxorubicin + Pemetrexed = compound: COc1cccc2c1C(=O)c1c(O)c3c(c(O)c1C2=O)C[C@@](O)(C(=O)CO)C[C@@H]3O[C@H]1C[C@H](N)[C@H](O)[C@H](C)O1 [Doxorubicin] + Nc1nc2[nH]cc(CCc3ccc(C(=O)N[C@@H](CCC(=O)O)C(=O)O)cc3)c2c(=O)[nH]1 [Pemetrexed] (partner 0.2 µM)
Method in brief: as §1

Cell Line | relative viability (BAY61-3606 + Palbociclib; first compound 0.02 µM) | relative viability (BAY61-3606 + Palbociclib; first compound 0.06325 µM) | relative viability (BAY61-3606 + Palbociclib; first compound 0.2 µM) | relative viability (BAY61-3606 + Palbociclib; first compound 0.6325 µM) | relative viability (BAY61-3606 + Palbociclib; first compound 2 µM) | relative viability (Doxorubicin + Pictilisib; first compound 0.001 µM) | relative viability (Doxorubicin + Pictilisib; first compound 0.003162 µM) | relative viability (Doxorubicin + Pictilisib; first compound 0.01 µM) | relative viability (Doxorubicin + Pictilisib; first compound 0.03162 µM) | relative viability (Doxorubicin + Pictilisib; first compound 0.1 µM) | relative viability (BAY61-3606 + Alpelisib; first compound 0.02 µM) | relative viability (BAY61-3606 + Alpelisib; first compound 0.06325 µM) | relative viability (BAY61-3606 + Alpelisib; first compound 0.2 µM) | relative viability (BAY61-3606 + Alpelisib; first compound 0.6325 µM) | relative viability (BAY61-3606 + Alpelisib; first compound 2 µM) | relative viability (Doxorubicin + Pemetrexed; first compound 0.001 µM) | relative viability (Doxorubicin + Pemetrexed; first compound 0.003162 µM) | relative viability (Doxorubicin + Pemetrexed; first compound 0.01 µM) | relative viability (Doxorubicin + Pemetrexed; first compound 0.03162 µM) | relative viability (Doxorubicin + Pemetrexed; first compound 0.1 µM)
EPLC-272H | 0.322 | 0.338 | 0.373 | 0.352 | 0.318 | 0.308 | 0.288 | 0.354 | 0.33 | 0.336 | 1.03 | 0.935 | 1 | 0.986 | 0.905 | 0.365 | 0.372 | 0.377 | 0.322 | 0.298
NCI-H1975 | 0.616 | 0.628 | 0.526 | 0.504 | 0.347 | 0.292 | 0.3 | 0.237 | 0.177 | 0.198 | 0.667 | 0.645 | 0.62 | 0.507 | 0.295 | 0.268 | 0.29 | 0.277 | 0.306 | 0.225
NCI-H322M | 0.522 | 0.47 | 0.511 | 0.49 | 0.447 | 0.589 | 0.448 | 0.546 | 0.561 | 0.564 | 0.9 | 0.792 | 0.852 | 0.898 | 0.841 | 0.682 | 0.542 | 0.66 | 0.548 | 0.512
NCI-H520 | 0.218 | 0.246 | 0.254 | 0.265 | 0.22 | 0.264 | 0.326 | 0.228 | 0.239 | 0.191 | 1.07 | 0.801 | 1.11 | 1.04 | 1.02 | 0.789 | 0.728 | 0.681 | 0.703 | 0.604
NCI-H358 | 0.123 | 0.143 | 0.136 | 0.125 | 0.101 | 0.441 | 0.349 | 0.273 | 0.175 | 0.181 | 0.996 | 0.753 | 0.732 | 0.643 | 0.228 | 0.152 | 0.183 | 0.179 | 0.156 | 0.169
NCI-H1395 | 0.702 | 0.598 | 0.608 | 0.682 | 0.59 | 0.682 | 0.623 | 0.648 | 0.628 | 0.421 | 1.16 | 0.957 | 1.07 | 1.04 | 0.97 | 0.887 | 1.02 | 1.08 | 0.7 | 0.537
LC-2-ad | 0.479 | 0.516 | 0.454 | 0.532 | 0.453 | 0.496 | 0.406 | 0.417 | 0.359 | 0.227 | 0.851 | 0.96 | 0.875 | 0.82 | 0.671 | 0.267 | 0.255 | 0.264 | 0.305 | 0.288
SK-MES-1 | 0.312 | 0.311 | 0.385 | 0.393 | 0.313 | 0.368 | 0.395 | 0.362 | 0.342 | 0.204 | 1.02 | 0.968 | 1 | 0.986 | 0.7 | 0.926 | 0.899 | 0.872 | 0.291 | 0.234
SW 1573 | 0.455 | 0.423 | 0.35 | 0.344 | 0.248 | 0.512 | 0.46 | 0.424 | 0.332 | 0.258 | 0.838 | 0.679 | 0.88 | 0.822 | 0.451 | 0.869 | 0.807 | 0.263 | 0.144 | 0.105
CAL-12T | 0.634 | 0.504 | 0.615 | 0.287 | 0.246 | 0.508 | 0.559 | 0.402 | 0.343 | 0.25 | 1.21 | 1.28 | 1.11 | 1.4 | 0.607 | 1.1 | 1.22 | 1.03 | 0.38 | 0.248
